{"source": "patent US9695155B2", "about": "“Herbicidal substituted pyrimidinyloxy benzene compounds” (E. I. DU PONT DE NEMOURS AND COMPANY, priority 2013, dated 2017)", "key": {"blackgrass": {"test_system": "blackgrass", "test": "Test C postemergence", "format": "in vivo, Alopecurus myosuroides", "conditions": "for Plant response rating, Blackgrass: scale 0 to 100 (0 no effect, 100 complete control)", "how_it_was_run": "(§1)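 Seeds are planted in blended loam soil and sand and treated preemergence, while seedlings in a peat moss/vermiculite medium receive postemergence sprays at 2 to 18 cm height. All plants stay in the greenhouse for 13 to 15 days before visual comparison with controls on a 0–100 scale.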"}, "barnyardgrass [1]": {"test_system": "barnyardgrass", "test": "Test B flooded paddy test", "format": "in vivo, Echinochloa crus-galli", "conditions": "Flood, 250 g ai/ha; 0 to 100 scale where 0 is no effect and 100 is complete control", "how_it_was_run": "(§2)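 Seedlings are raised to two leaves, flooded to a depth of 3 cm and dosed by adding the compound to the floodwater. Water level is kept constant, and plants are scored visually versus controls 13–15 days later (0 = no effect, 100 = complete control).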"}, "soybean": {"test_system": "soybean", "test": "Test C preemergence", "format": "in vivo, Glycine max", "conditions": "for Soybean plant response rating: preemergence", "how_it_was_run": "as §1"}, "morningglory [2]": {"test_system": "morningglory", "test": "Test C preemergence", "format": "in vivo, Ipomoea coccinea", "conditions": "for Morningglory plant response rating: preemergence", "how_it_was_run": "as §1"}, "morningglory [3]": {"test_system": "morningglory", "test": "Test A preemergence", "format": "in vivo, Ipomoea spp.", "conditions": "1000 g ai/ha, 0 to 100 scale, 0 no effect, 100 complete control, approx. 10 days", "how_it_was_run": "(§3)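 Greenhouse pot test, loam/sand soil. Formulation: non-phytotoxic solvent mix plus surfactant. Pre: directed spray onto soil after sowing. Post: plants at 1–2 leaf, 2–10 cm. Rated visually vs untreated controls at ~10 d, 0 (no effect) to 100 (complete control).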"}, "barnyardgrass [4]": {"test_system": "barnyardgrass", "test": "Test A postemergence", "format": "in vivo, Echinochloa crus-galli", "conditions": "1000 g ai/ha, 0 to 100 scale, 0 no effect, 100 complete control", "how_it_was_run": "as §3"}, "waterhemp": {"test_system": "waterhemp", "test": "Test C preemergence", "format": "in vivo, Amaranthus rudis", "conditions": "for Waterhemp plant response rating: preemergence", "how_it_was_run": "as §1"}, "large (Lg) crabgrass": {"test_system": "large (Lg) crabgrass", "test": "Test C postemergence", "format": "in vivo, Digitaria sanguinalis", "conditions": "for Plant response rating, Crabgrass, Large: scale 0 to 100 (0 no effect, 100 complete control)", "how_it_was_run": "as §1"}, "wheat, winter": {"test_system": "wheat, winter", "test": "Test C preemergence", "format": "in vivo, Triticum aestivum", "conditions": "for Wheat plant response rating: preemergence", "how_it_was_run": "as §1"}, "rice": {"test_system": "rice", "test": "Test B flooded paddy test", "format": "in vivo, Oryza sativa", "conditions": "Flood, 250 g ai/ha; 0 to 100 scale where 0 is no effect and 100 is complete control", "how_it_was_run": "as §2"}, "barnyardgrass [5]": {"test_system": "barnyardgrass", "test": "Test C preemergence", "format": "in vivo, Echinochloa crus-galli", "conditions": "for Barnyardgrass plant response rating: preemergence", "how_it_was_run": "as §1"}, "velvetleaf": {"test_system": "velvetleaf", "test": "Test A postemergence", "format": "in vivo, Abutilon theophrasti", "conditions": "1000 g ai/ha, 0 to 100 scale, 0 no effect, 100 complete control", "how_it_was_run": "as §3"}, "pigweed [6]": {"test_system": "pigweed", "test": "Test A preemergence", "format": "in vivo, Amaranthus retroflexus", "conditions": "1000 g ai/ha, 0 to 100 scale, 0 no effect, 100 complete control, approx. 10 days", "how_it_was_run": "as §3"}, "ragweed": {"test_system": "ragweed", "test": "Test C postemergence", "format": "in vivo, Ambrosia elatior", "conditions": "for Plant response rating, Ragweed: scale 0 to 100 (0 no effect, 100 complete control)", "how_it_was_run": "as §1"}, "pigweed [7]": {"test_system": "pigweed", "test": "Test A postemergence", "format": "in vivo, Amaranthus retroflexus", "conditions": "1000 g ai/ha, 0 to 100 scale, 0 no effect, 100 complete control", "how_it_was_run": "as §3"}, "[8]": {"conditions": "16 g ai/ha, postemergence, 0 is no effect, 100 is complete control"}, "[9]": {"conditions": "125 g ai/ha, postemergence, visual rating"}, "[10]": {"conditions": "16 g ai/ha, scale 0 to 100 (0 no effect, 100 complete control)"}, "[11]": {"conditions": "62 g ai/ha, scale 0 (no effect) to 100 (complete control)"}, "[12]": {"conditions": "125 g ai/ha, scale 0 (no effect) to 100 (complete control)"}, "[13]": {"conditions": "Preemergence, 31 g ai/ha, scale 0 to 100, 0 no effect, 100 complete control"}}}
{"smiles": "N#Cc1cn(-c2c(Br)cccc2Oc2ncc(Cl)cn2)nn1", "note": "[Compound 116]", "values": [{"measurement": "Plant response rating (0 to 100), Blackgrass", "setting": "blackgrass; [8]", "result": 0}, {"measurement": "Plant response rating, Blackgrass", "setting": "blackgrass; [9]", "result": 25}, {"measurement": "Plant response rating, Blackgrass", "setting": "blackgrass; Postemergence, 31 g ai/ha, 13 to 15 days", "result": 5}, {"measurement": "Plant response rating, Blackgrass", "setting": "blackgrass; Postemergence, 62 g ai/ha", "result": 10}, {"measurement": "Plant response rating, Barnyardgrass", "setting": "barnyardgrass [1]", "result": 0}, {"measurement": "Soybean plant response rating", "setting": "soybean; [10]", "result": 0}, {"measurement": "Soybean plant response rating", "setting": "soybean; [11]", "result": 40}, {"measurement": "Soybean plant response rating", "setting": "soybean; [12]", "result": 70}, {"measurement": "Plant response rating, Soybean", "setting": "soybean; [13]", "result": 25}, {"measurement": "Morningglory plant response rating", "setting": "morningglory [2]; [10]", "result": 0}, {"measurement": "Morningglory plant response rating", "setting": "morningglory [2]; [11]", "result": 20}, {"measurement": "Morningglory plant response rating", "setting": "morningglory [2]; [12]", "result": 20}, {"measurement": "Plant response rating, Morningglory", "setting": "morningglory [2]; [13]", "result": 5}, {"measurement": "Morningglory plant response rating", "setting": "morningglory [3]", "result": 100}, {"measurement": "Plant response rating, Barnyardgrass", "setting": "barnyardgrass [4]", "result": 90}, {"measurement": "Waterhemp plant response rating", "setting": "waterhemp; [10]", "result": 100}, {"measurement": "Waterhemp plant response rating", "setting": "waterhemp; [11]", "result": 100}, {"measurement": "Waterhemp plant response rating", "setting": "waterhemp; [12]", "result": 100}, {"measurement": "Plant response rating, Waterhemp", "setting": "waterhemp; [13]", "result": 100}, {"measurement": "Plant response rating (0 to 100), Crabgrass, Large", "setting": "large (Lg) crabgrass; [8]", "result": 5}, {"measurement": "Plant response rating, Crabgrass, Large", "setting": "large (Lg) crabgrass; [9]", "result": 30}, {"measurement": "Plant response rating, Crabgrass, Large", "setting": "large (Lg) crabgrass; Postemergence, 62 g ai/ha", "result": 15}, {"measurement": "Wheat plant response rating", "setting": "wheat, winter; [10]", "result": 0}, {"measurement": "Wheat plant response rating", "setting": "wheat, winter; [11]", "result": 0}, {"measurement": "Wheat plant response rating", "setting": "wheat, winter; [12]", "result": 5}, {"measurement": "Plant response rating, Wheat", "setting": "wheat, winter; [13]", "result": 0}, {"measurement": "Plant response rating, Rice", "setting": "rice", "result": 0}, {"measurement": "Barnyardgrass plant response rating", "setting": "barnyardgrass [5]; [10]", "result": 0}, {"measurement": "Barnyardgrass plant response rating", "setting": "barnyardgrass [5]; [11]", "result": 45}, {"measurement": "Barnyardgrass plant response rating", "setting": "barnyardgrass [5]; [12]", "result": 70}, {"measurement": "Plant response rating, Barnyardgrass", "setting": "barnyardgrass [5]; [13]", "result": 25}, {"measurement": "Plant response rating, Velvetleaf", "setting": "velvetleaf", "result": 100}, {"measurement": "Pigweed plant response rating", "setting": "pigweed [6]", "result": 100}, {"measurement": "Plant response rating (0 to 100), Ragweed", "setting": "ragweed; [8]", "result": 5}, {"measurement": "Plant response rating, Ragweed", "setting": "ragweed; [9]", "result": 70}, {"measurement": "Plant response rating, Ragweed", "setting": "ragweed; Postemergence, 62 g ai/ha", "result": 25}, {"measurement": "Plant response rating, Pigweed", "setting": "pigweed [7]", "result": 100}]}
